Test results from ChEMBL document CHEMBL3885881, “DrugMatrix”.

Species on record: Rattus norvegicus
Assay: DrugMatrix - Regimen: Daily Repeat
Format: toxicity, organism-based, Sprague-Dawley
Design: regimen Daily Repeat, gender Male, age 6-8 weeks
Details: in vivo, po, route oral GAVAGE, vehicle .5 % CMC; for ABSOLUTE BASOPHIL / ABSOLUTE EOSINOPHIL / ABSOLUTE LYMPHOCYTE / ABSOLUTE MONOCYTE / ABSOLUTE SEGMENTED NEUTROPHIL / BASOPHIL / EOSINOPHIL / ERYTHROCYTE COUNT / HEMATOCRIT / HEMOGLOBIN / LEUKOCYTE COUNT / LYMPHOCYTE / MEAN CORPUSCULAR HEMOGLOBIN / MEAN CORPUSCULAR HEMOGLOBIN CONCENTRATION / MEAN CORPUSCULAR VOLUME / MONOCYTE / NEUTROPHIL / NUCLEATED RED BLOOD CELLS / PLATELET COUNT: tissue Blood; for ALANINE AMINOTRANSFERASE / ALBUMIN / ALKALINE PHOSPHATASE / ASPARTATE AMINOTRANSFERASE / BLOOD UREA NITROGEN / CARBON DIOXIDE / CHLORIDE / CHOLESTEROL / CREATINE PHOSPHOKINASE / CREATININE / GLUCOSE / LACTATE DEHYDROGENASE / LIPASE / PHOSPHORUS / POTASSIUM / SODIUM / TOTAL BILIRUBIN / TOTAL PROTEIN / URIC ACID: tissue Plasma
[1] = 0 mg/kg, 72 h, dose level Control, time 3 day
[2] = 0 mg/kg, 120 h, dose level Control, time 5 day
[3] = 10 mg/kg, 72 h, dose level Low, time 3 day

For CC(C)(C#N)c1cc(Cn2cncn2)cc(C(C)(C)C#N)c1 [ANASTROZOLE], the “ABSOLUTE BASOPHIL” value [1] was 0 CELLS/uL, the “ABSOLUTE EOSINOPHIL” value [1] was 0 CELLS/uL and the “ABSOLUTE LYMPHOCYTE” value [1] was 10913.67 CELLS/uL. For the same molecule, the “ABSOLUTE MONOCYTE” value [1] was 85.33 CELLS/uL, the “ABSOLUTE SEGMENTED NEUTROPHIL” value [1] was 1401 CELLS/uL and the BASOPHIL [1] was 0%. For the same molecule, the EOSINOPHIL [1] was 0%, the “ERYTHROCYTE COUNT” value [1] was 5.57 x10E6/uL and the HEMATOCRIT [1] was 35.58%. For the same molecule, the HEMOGLOBIN [1] was 13.8 G/DL, the “LEUKOCYTE COUNT” value [1] was 12.4 x10E3/uL and the LYMPHOCYTE [1] was 88%. For the same molecule, the “MEAN CORPUSCULAR HEMOGLOBIN” value [1] was 24.78 pg, the “MEAN CORPUSCULAR HEMOGLOBIN CONCENTRATION” value [1] was 38.82 G/DL and the “MEAN CORPUSCULAR VOLUME” value [1] was 63.88 fL. For the same molecule, the MONOCYTE [1] was 0.67%, the NEUTROPHIL [1] was 11.33% and the “NUCLEATED RED BLOOD CELLS” value [1] was 0 /100WBC. For the same molecule, the “PLATELET COUNT” value [1] was 1162.33 x10E3/uL, the “ALANINE AMINOTRANSFERASE” value [1] was 53 u/L and the ALBUMIN [1] was 4.17 G/DL. The “ALKALINE PHOSPHATASE” value [1] was 374.5 u/L, the “ASPARTATE AMINOTRANSFERASE” value [1] was 89.5 u/L and the “BLOOD UREA NITROGEN” value [1] was 16.33 mg/dL. The “CARBON DIOXIDE” value [1] was 29.17 mmol/L, the CHLORIDE [1] was 97.67 MEQ/L and the CHOLESTEROL [1] was 77 mg/dL. For the same molecule, the “CREATINE PHOSPHOKINASE” value [1] was 464.83 u/L, the CREATININE [1] was 0.14 mg/dL and the GLUCOSE [1] was 164 mg/dL. The “LACTATE DEHYDROGENASE” value [1] was 155.5 u/L, the LIPASE [1] was 9.17 u/L and the PHOSPHORUS [1] was 12.4 mg/dL. The POTASSIUM [1] was 6.91 MEQ/L, the SODIUM [1] was 141.47 MEQ/L and the “TOTAL BILIRUBIN” value [1] was 0.2 mg/dL. For the same molecule, the “TOTAL PROTEIN” value [1] was 5.95 G/DL, the “URIC ACID” value [1] was 1.72 mg/dL and the “ABSOLUTE BASOPHIL” value [2] was 0 CELLS/uL. For the same molecule, the “ABSOLUTE EOSINOPHIL” value [2] was 20.5 CELLS/uL, the “ABSOLUTE LYMPHOCYTE” value [2] was 13871.67 CELLS/uL and the “ABSOLUTE MONOCYTE” value [2] was 60.5 CELLS/uL. For the same molecule, the “ABSOLUTE SEGMENTED NEUTROPHIL” value [2] was 980.67 CELLS/uL, the BASOPHIL [2] was 0% and the EOSINOPHIL [2] was 0.17%. For the same molecule, the “ERYTHROCYTE COUNT” value [2] was 5.65 x10E6/uL, the HEMATOCRIT [2] was 35.63% and the HEMOGLOBIN [2] was 14.08 G/DL. For the same molecule, the “LEUKOCYTE COUNT” value [2] was 14.93 x10E3/uL, the LYMPHOCYTE [2] was 92.83% and the “MEAN CORPUSCULAR HEMOGLOBIN” value [2] was 24.97 pg. For the same molecule, the “MEAN CORPUSCULAR HEMOGLOBIN CONCENTRATION” value [2] was 39.55 G/DL, the “MEAN CORPUSCULAR VOLUME” value [2] was 63.13 fL and the MONOCYTE [2] was 0.33%. For the same molecule, the NEUTROPHIL [2] was 6.67%, the “NUCLEATED RED BLOOD CELLS” value [2] was 0 /100WBC and the “PLATELET COUNT” value [2] was 1248.17 x10E3/uL. The “ALANINE AMINOTRANSFERASE” value [2] was 45.17 u/L, the ALBUMIN [2] was 4.27 G/DL and the “ALKALINE PHOSPHATASE” value [2] was 405.67 u/L. The “ASPARTATE AMINOTRANSFERASE” value [2] was 74.17 u/L, the “BLOOD UREA NITROGEN” value [2] was 15.5 mg/dL and the “CARBON DIOXIDE” value [2] was 30.17 mmol/L. The CHLORIDE [2] was 100.67 MEQ/L, the CHOLESTEROL [2] was 57 mg/dL and the “CREATINE PHOSPHOKINASE” value [2] was 239.5 u/L. The CREATININE [2] was 0.17 mg/dL, the GLUCOSE [2] was 165.67 mg/dL and the “LACTATE DEHYDROGENASE” value [2] was 90.5 u/L. For the same molecule, the LIPASE [2] was 8.83 u/L, the PHOSPHORUS [2] was 12.32 mg/dL and the POTASSIUM [2] was 7.03 MEQ/L. The SODIUM [2] was 142.65 MEQ/L, the “TOTAL BILIRUBIN” value [2] was 0.18 mg/dL and the “TOTAL PROTEIN” value [2] was 6.03 G/DL. For the same molecule, the “URIC ACID” value [2] was 1.98 mg/dL, the “ABSOLUTE BASOPHIL” value [3] was 0 CELLS/uL and the “ABSOLUTE EOSINOPHIL” value [3] was 62 CELLS/uL. The “ABSOLUTE LYMPHOCYTE” value [3] was 13335.67 CELLS/uL, the “ABSOLUTE MONOCYTE” value [3] was 144.33 CELLS/uL and the “ABSOLUTE SEGMENTED NEUTROPHIL” value [3] was 2091.33 CELLS/uL. The BASOPHIL [3] was 0%, the EOSINOPHIL [3] was 0.33% and the “ERYTHROCYTE COUNT” value [3] was 5.84 x10E6/uL. For the same molecule, the HEMATOCRIT [3] was 36.23%, the HEMOGLOBIN [3] was 14.47 G/DL and the “LEUKOCYTE COUNT” value [3] was 15.63 x10E3/uL. For the same molecule, the LYMPHOCYTE [3] was 85%, the “MEAN CORPUSCULAR HEMOGLOBIN” value [3] was 24.77 pg and the “MEAN CORPUSCULAR HEMOGLOBIN CONCENTRATION” value [3] was 39.93 G/DL. For the same molecule, the “MEAN CORPUSCULAR VOLUME” value [3] was 62 fL, the MONOCYTE [3] was 1% and the NEUTROPHIL [3] was 13.67%. The “NUCLEATED RED BLOOD CELLS” value [3] was 0 /100WBC, the “PLATELET COUNT” value [3] was 1170.33 x10E3/uL and the “ALANINE AMINOTRANSFERASE” value [3] was 55.67 u/L. The ALBUMIN [3] was 4.13 G/DL, the “ALKALINE PHOSPHATASE” value [3] was 405 u/L and the “ASPARTATE AMINOTRANSFERASE” value [3] was 89.67 u/L. For the same molecule, the “BLOOD UREA NITROGEN” value [3] was 18.67 mg/dL, the “CARBON DIOXIDE” value [3] was 29 mmol/L and the CHLORIDE [3] was 97 MEQ/L. The CHOLESTEROL [3] was 77 mg/dL, the “CREATINE PHOSPHOKINASE” value [3] was 289.33 u/L and the CREATININE [3] was 0.1 mg/dL. For the same molecule, the GLUCOSE [3] was 149.33 mg/dL, the “LACTATE DEHYDROGENASE” value [3] was 219.33 u/L and the LIPASE [3] was 9.33 u/L. For the same molecule, the PHOSPHORUS [3] was 13.03 mg/dL, the POTASSIUM [3] was 6.88 MEQ/L and the SODIUM [3] was 142.57 MEQ/L. The “TOTAL BILIRUBIN” value [3] was 0.27 mg/dL and the “TOTAL PROTEIN” value [3] was 5.8 G/DL.
